Data reported in the NIST ThermoML archive (doi:10.1021/acs.jced.7b00709).
Numbers after ± are expanded uncertainties. Blank lines part the entries; values can stand above or below the compound they belong to.

Test: xn = mol fraction of the nth substance listed
Conditions: 298.2 K, 100 kPa, Liquid, Pycnometric method

mass density (x1 = 0.05656): 1298 ± 1.6 kg/m3
Compound: Cc1ccc(-c2ncc(Cl)cc2-c2ccc(S(C)(=O)=O)cc2)cn1 [etoricoxib] + OCC(O)CO

mass density (x1 = 1.58e-05): 994.8 ± 1 kg/m3
Compound: Cc1ccc(-c2ncc(Cl)cc2-c2ccc(S(C)(=O)=O)cc2)cn1 [etoricoxib] + O

mass density (x1 = 0.03786): 805 ± 0.9 kg/m3
Compound: Cc1ccc(-c2ncc(Cl)cc2-c2ccc(S(C)(=O)=O)cc2)cn1 [etoricoxib] + CO

mass density (x1 = 0.06047): 1059.7 ± 1.3 kg/m3
Compound: Cc1ccc(-c2ncc(Cl)cc2-c2ccc(S(C)(=O)=O)cc2)cn1 [etoricoxib] + CC(O)CO
